Results reported in US10830746B2, “Quantitation of Tamoxifen and metabolites thereof by mass spectrometry” (QUEST DIAGNOSTICS INVESTMENTS INCORPORATED, priority 2014, dated 2020).

Assay: Quantitation of tamoxifen and its metabolites in patient serum by LC-MS/MS
Experimental: In the following procedure, tamoxifen and its metabolites are extracted from serum. The serum is added to a filter plate, and then mixed with acetonitrile/IS, which then forms a precipitate. The mixture is then placed on a positive pressure manifold, and the organic fraction is passed through to a collection plate. The plate is lidded, and then placed on the Cohesive system for injection onto MS/MS. The MS is in APCI-positive mode. The quantitation is based upon unique parent-product transitions. Those analytes with similar transitions were separated chromatographically.
A 12-point calibration is used for each analyte. Initially, only one standard is made (Std-12), with a series of dilutions performed to generate the remaining standards. The standard (#12) is to be removed from the −70° C. freezer and thawed. While thawing, label twelve 12×75 mm tubes.
Add 3.0 mL of std-12 to tube 12. From this standard, you will follow the table below to create the standard curve. A standard curve is to be generated with each assay. Place the initial standard back in the −60 to −90° C. freezer.
A Thermo LC/MS/MS system containing the following modules was used for this assay:
The extraction is a protein precipitation, followed by filtration. Analysis and quantitation is then performed by LC/MS/MS.
Norendoxifen is extracted from serum using protein precipitation, followed by filtration. Analysis and quantitation is then performed by LC/MS/MS.

Row | Molecule | Reference Ranges (human, in vivo) | Reference Ranges (expected values in serum)
1 | 4-Hydroxy Tamoxifen | 0.24 to 5.05 ng/mL | 
2 | CC/C(=C(\c1ccccc1)c1ccc(OCCN(C)C)cc1)c1ccc(O)cc1 [4′-Hydroxy Tamoxifen] | 0.4 to 6.33 ng/mL | 
3 | Tamoxifen |  | 12.54 to 233.07 ng/mL

Now from value to molecule, other results behind:

Row | Reference Ranges (human, in vivo) | Molecule | Reference Ranges (expected values in serum)
4 | 2.59 to 373.96 ng/mL | CC/C(=C(\c1ccccc1)c1ccc(OCCNC)cc1)c1ccccc1 [N-Desmethyl Tamoxifen] | 
5 | 0.93 to 43.19 ng/mL | CC/C(=C(\c1ccc(O)cc1)c1ccc(OCCNC)cc1)c1ccccc1 [N-Desmethyl-4-Hydroxy Tamoxifen] | 
6 | 1.17 to 19.95 ng/mL | CCC(=C(c1ccccc1)c1ccc(OCCNC)cc1)c1ccc(O)cc1 [N-Desmethyl-4′-Hydroxy Tamoxifen] | 
